PubChem BioAssay (NCI)
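Test compounds were applied to cells in 96-well plates for 48 hours at 5 doses. TGI is the concentration that stops growth completely.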

Key:
Test in all cases: growth of human tumour cells (NCI), 48 h
HOP-92 NSCLC = system: HOP-92 NSCLC
COLO 205 colon = system: COLO 205 colon
KM12 colon = system: KM12 colon
NCI-H226 lung = system: NCI-H226 lung
K-562 leukemia = system: K-562 leukemia
LOX IMVI melanoma = system: LOX IMVI melanoma
HT29 colon = system: HT29 colon
SK-OV-3 ovarian = system: SK-OV-3 ovarian
HS 578T breast = system: HS 578T breast
UACC-257 melanoma = system: UACC-257 melanoma
SW-620 colon = system: SW-620 colon
A498 renal = system: A498 renal
SF-539 CNS = system: SF-539 CNS
EKVX NSCLC = system: EKVX NSCLC
SR leukemia = system: SR leukemia
PC-3 prostate = system: PC-3 prostate
MALME-3M melanoma = system: MALME-3M melanoma
SN12C renal = system: SN12C renal
HCC-2998 colon = system: HCC-2998 colon
SF-268 CNS = system: SF-268 CNS
HL-60(TB) leukemia = system: HL-60(TB) leukemia
SK-MEL-28 melanoma = system: SK-MEL-28 melanoma
MDA-N = system: MDA-N
HCT-15 colon = system: HCT-15 colon
RXF 393 renal = system: RXF 393 renal
SNB-19 CNS = system: SNB-19 CNS
CCRF-CEM leukemia = system: CCRF-CEM leukemia
NCI-H522 lung = system: NCI-H522 lung
MDA-MB-231 breast = system: MDA-MB-231 breast
ACHN renal = system: ACHN renal
A549 NSCLC = system: A549 NSCLC
CAKI-1 renal = system: CAKI-1 renal
OVCAR-3 ovarian = system: OVCAR-3 ovarian
HOP-62 NSCLC = system: HOP-62 NSCLC
HCT-116 colon = system: HCT-116 colon
OVCAR-5 ovarian = system: OVCAR-5 ovarian
MCF7 breast = system: MCF7 breast
NCI-H460 lung = system: NCI-H460 lung
OVCAR-4 ovarian = system: OVCAR-4 ovarian
786-0 renal = system: 786-0 renal
UO-31 renal = system: UO-31 renal
MDA-MB-435 = system: MDA-MB-435
T-47D breast = system: T-47D breast
OVCAR-8 ovarian = system: OVCAR-8 ovarian
SNB-75 CNS = system: SNB-75 CNS
M14 melanoma = system: M14 melanoma
SK-MEL-5 melanoma = system: SK-MEL-5 melanoma
IGROV1 ovarian = system: IGROV1 ovarian
SK-MEL-2 melanoma = system: SK-MEL-2 melanoma
NCI-H23 lung = system: NCI-H23 lung
TK-10 renal = system: TK-10 renal
DU-145 prostate = system: DU-145 prostate
RPMI-8226 leukemia = system: RPMI-8226 leukemia
MOLT-4 leukemia = system: MOLT-4 leukemia
NCI/ADR-RES ovarian = system: NCI/ADR-RES ovarian
BT-549 breast = system: BT-549 breast
SF-295 CNS = system: SF-295 CNS
UACC-62 melanoma = system: UACC-62 melanoma
U251 CNS = system: U251 CNS

Cc1ccc([N+](=O)[O-])cc1S(=O)(=O)Nc1ccc(C(=O)/C=C/c2cccs2)cc1
TGI (HOP-92 NSCLC): > 100 µM
TGI (COLO 205 colon): 95.9 µM
TGI (KM12 colon): 32.5 µM
TGI (NCI-H226 lung): 71.5 µM
TGI (K-562 leukemia): > 100 µM
TGI (LOX IMVI melanoma): 45.2 µM
TGI (HT29 colon): 41.6 µM
TGI (SK-OV-3 ovarian): > 100 µM
TGI (HS 578T breast): > 100 µM
TGI (UACC-257 melanoma): 46.6 µM
TGI (SW-620 colon): 50.1 µM
TGI (A498 renal): 45.1 µM
TGI (SF-539 CNS): > 100 µM
TGI (EKVX NSCLC): 51.7 µM
TGI (SR leukemia): 68.9 µM
TGI (PC-3 prostate): 43.8 µM
TGI (MALME-3M melanoma): > 100 µM
TGI (SN12C renal): 74.8 µM
TGI (HCC-2998 colon): 34.6 µM
TGI (SF-268 CNS): > 100 µM
TGI (HL-60(TB) leukemia): 62.9 µM
TGI (SK-MEL-28 melanoma): 58.7 µM
TGI (MDA-N): 73 µM
TGI (HCT-15 colon): 64.3 µM
TGI (RXF 393 renal): 32.9 µM
TGI (SNB-19 CNS): 55.9 µM
TGI (CCRF-CEM leukemia): > 100 µM
TGI (NCI-H522 lung): 50.8 µM
TGI (MDA-MB-231 breast): 31.1 µM
TGI (ACHN renal): 87.6 µM
TGI (A549 NSCLC): > 100 µM
TGI (CAKI-1 renal): 38.8 µM
TGI (OVCAR-3 ovarian): 39.2 µM
TGI (HOP-62 NSCLC): 48 µM
TGI (HCT-116 colon): 35.8 µM
TGI (OVCAR-5 ovarian): > 100 µM
TGI (MCF7 breast): 39.2 µM
TGI (NCI-H460 lung): > 100 µM
TGI (OVCAR-4 ovarian): 54.3 µM
TGI (786-0 renal): 37.4 µM
TGI (UO-31 renal): 40.4 µM
TGI (MDA-MB-435): 32.7 µM
TGI (T-47D breast): 91.7 µM
TGI (OVCAR-8 ovarian): > 100 µM
TGI (SNB-75 CNS): 36.9 µM
TGI (M14 melanoma): 45.3 µM
TGI (SK-MEL-5 melanoma): 33.1 µM
TGI (IGROV1 ovarian): > 100 µM
TGI (SK-MEL-2 melanoma): 41.8 µM
TGI (NCI-H23 lung): 46.1 µM
TGI (TK-10 renal): > 100 µM
TGI (DU-145 prostate): 54.2 µM
TGI (RPMI-8226 leukemia): > 100 µM
TGI (MOLT-4 leukemia): 64.1 µM
TGI (NCI/ADR-RES ovarian): 59.3 µM
TGI (BT-549 breast): 40.1 µM
TGI (SF-295 CNS): > 100 µM
TGI (UACC-62 melanoma): 32.1 µM

Cc1ccc([N+](=O)[O-])cc1S(=O)(=O)Nc1ccc(C2=NN(C(=O)c3ccccc3)C(c3ccccc3)C2)cc1 (centres undefined)
TGI (HOP-92 NSCLC): 62.9 µM
TGI (COLO 205 colon): 33.9 µM
TGI (KM12 colon): > 100 µM
TGI (NCI-H226 lung): 72.2 µM
TGI (K-562 leukemia): > 100 µM
TGI (LOX IMVI melanoma): > 100 µM
TGI (HT29 colon): > 100 µM
TGI (SK-OV-3 ovarian): 73.7 µM
TGI (HS 578T breast): > 100 µM
TGI (UACC-257 melanoma): 64.7 µM
TGI (SW-620 colon): > 100 µM
TGI (A498 renal): 51.3 µM
TGI (SF-539 CNS): 55.2 µM
TGI (EKVX NSCLC): 59.7 µM
TGI (SR leukemia): > 100 µM
TGI (PC-3 prostate): > 100 µM
TGI (MALME-3M melanoma): 66.6 µM
TGI (SN12C renal): 63.1 µM
TGI (SF-268 CNS): > 100 µM
TGI (HL-60(TB) leukemia): 81.8 µM
TGI (SK-MEL-28 melanoma): > 100 µM
TGI (MDA-N): 67.4 µM
TGI (HCT-15 colon): > 100 µM
TGI (U251 CNS): > 100 µM
TGI (RXF 393 renal): 57.3 µM
TGI (SNB-19 CNS): > 100 µM
TGI (CCRF-CEM leukemia): > 100 µM
TGI (NCI-H522 lung): 58.2 µM
TGI (MDA-MB-231 breast): 46.3 µM
TGI (ACHN renal): 93.6 µM
TGI (A549 NSCLC): > 100 µM
TGI (CAKI-1 renal): > 100 µM
TGI (OVCAR-3 ovarian): 49 µM
TGI (HOP-62 NSCLC): 72 µM
TGI (HCT-116 colon): > 100 µM
TGI (OVCAR-5 ovarian): > 100 µM
TGI (MCF7 breast): 75.7 µM
TGI (OVCAR-4 ovarian): > 100 µM
TGI (786-0 renal): 48.2 µM
TGI (UO-31 renal): > 100 µM
TGI (MDA-MB-435): > 100 µM
TGI (T-47D breast): 97.5 µM
TGI (OVCAR-8 ovarian): > 100 µM
TGI (SNB-75 CNS): 49.9 µM
TGI (M14 melanoma): > 100 µM
TGI (SK-MEL-5 melanoma): 30.4 µM
TGI (IGROV1 ovarian): 95.2 µM
TGI (SK-MEL-2 melanoma): 38.7 µM
TGI (NCI-H23 lung): 68.2 µM
TGI (TK-10 renal): 68.8 µM
TGI (DU-145 prostate): > 100 µM
TGI (RPMI-8226 leukemia): > 100 µM
TGI (MOLT-4 leukemia): > 100 µM
TGI (NCI/ADR-RES ovarian): > 100 µM
TGI (BT-549 breast): 96.9 µM
TGI (SF-295 CNS): > 100 µM
